The Kd is the free concentration of one partner at which half of the binding sites on the other are occupied at equilibrium, for simple one-to-one binding.

One experiment has as its target SARS−CoV−2 Spike RBD (Severe acute respiratory syndrome coronavirus 2, UniProt P0DTC2). Briefly: biochemical. The format is binding.
For experiment [1], the target named is SARS-CoV-2 Spike receptor-binding domain (residues N334-P527) (SARS-CoV-2 (isolate Wuhan-Hu-1)) (UniProt P0DTC2). The experiment in a line: MST.

Read-outs that look alike come from different tables or passages of the source. Bridge positions count the residues as written; N and C are the ends. Peptide text beside a SMILES is read from it.

For `CC[C@H](C)[C@@H]1NC(=O)[C@H](CO)NC(=O)[C@H](CC(C)C)NC(=O)[C@@H]2CSSC[C@@H](C(=O)NCC(=O)N[C@@H](CCCCN)C(=O)N[C@@H](CCC(N)=O)C(=O)O)NC(=O)[C@H]([C@@H](C)O)NC(=O)[C@@H]3CSSC[C@H](NC(=O)[C@H](CCC(=O)O)NC(=O)[C@H](CC(N)=O)NC(=O)[C@H](CCCNC(=N)N)NC(=O)[C@H](CC(N)=O)NC(=O)[C@H](Cc4ccccc4)NC(=O)[C@@H]4CCCN4C(=O)[C@@H](NC(=O)CNC(=O)[C@H](Cc4ccccc4)NC(=O)CN)CSSC[C@H](NC(=O)[C@H](Cc4ccccc4)NC(=O)CNC(=O)[C@H](Cc4ccccc4)NC(=O)[C@H](CCCCN)NC(=O)[C@H](CCCNC(=N)N)NC(=O)CNC1=O)C(=O)N[C@@H](C)C(=O)NCC(=O)N1CCC[C@H]1C(=O)N[C@@H](CC(C)C)C(=O)N[C@@H](CCCNC(=N)N)C(=O)N[C@@H](C)C(=O)N[C@@H]([C@@H](C)O)C(=O)N3)C(=O)N[C@@H](Cc1c[nH]cn1)C(=O)N[C@@H](C)C(=O)N[C@@H](Cc1c[nH]cn1)C(=O)N2` [rE8R] (H-GFGCPFNRNECHAHCLSIGRKFGFCAGPLRATCTCGKQ-OH; disulfide 4-25, 11-33, 15-35), the Kd at SARS−CoV−2 Spike RBD (n = 2, read-out: KD) stood at 1920 nM.
The compound recombinant micasin E8K (peptide) displayed a Kd in experiment [1] of 1900 nM.
In the case of `CC[C@H](C)[C@@H]1NC(=O)[C@H](CO)NC(=O)[C@H](CC(C)C)NC(=O)[C@@H]2CSSC[C@@H](C(=O)NCC(=O)N[C@@H](CCCCN)C(=O)N[C@@H](CCC(N)=O)C(=O)O)NC(=O)[C@H]([C@@H](C)O)NC(=O)[C@@H]3CSSC[C@H](NC(=O)[C@H](CCC(=O)O)NC(=O)[C@H](CC(N)=O)NC(=O)[C@H](CCC(=O)O)NC(=O)[C@H](CC(N)=O)NC(=O)[C@H](Cc4ccccc4)NC(=O)[C@@H]4CCCN4C(=O)[C@@H](NC(=O)CNC(=O)[C@H](Cc4ccccc4)NC(=O)CN)CSSC[C@H](NC(=O)[C@H](Cc4ccccc4)NC(=O)CNC(=O)[C@H](Cc4ccccc4)NC(=O)[C@H](CCCCN)NC(=O)[C@H](CCCNC(=N)N)NC(=O)CNC1=O)C(=O)N[C@@H](C)C(=O)NCC(=O)N1CCC[C@H]1C(=O)N[C@@H](CC(C)C)C(=O)N[C@@H](CCCNC(=N)N)C(=O)N[C@@H](C)C(=O)N[C@@H]([C@@H](C)O)C(=O)N3)C(=O)N[C@@H](Cc1c[nH]cn1)C(=O)N[C@@H](C)C(=O)N[C@@H](Cc1c[nH]cn1)C(=O)N2` [micasin] (H-GFGCPFNENECHAHCLSIGRKFGFCAGPLRATCTCGKQ-OH; disulfide 4-25, 11-33, 15-35), the Kd at SARS−CoV−2 Spike RBD (KD, SD) amounted to 5040 ± 960 nM.
In the case of `CC[C@H](C)[C@@H]1NC(=O)[C@H](CO)NC(=O)[C@H](CC(C)C)NC(=O)[C@@H]2CSSC[C@@H](C(=O)NCC(=O)N[C@@H](CCCCN)C(=O)N[C@@H](CCC(N)=O)C(=O)O)NC(=O)[C@H]([C@@H](C)O)NC(=O)[C@@H]3CSSC[C@H](NC(=O)[C@H](CCC(=O)O)NC(=O)[C@H](CC(N)=O)NC(=O)[C@H](CCCNC(=N)N)NC(=O)[C@H](CC(N)=O)NC(=O)[C@H](Cc4ccccc4)NC(=O)[C@@H]4CCCN4C(=O)[C@@H](NC(=O)CNC(=O)[C@H](Cc4ccccc4)NC(=O)CN)CSSC[C@H](NC(=O)[C@H](Cc4ccccc4)NC(=O)CNC(=O)[C@H](Cc4ccccc4)NC(=O)[C@H](CCCCN)NC(=O)[C@H](CCCNC(=N)N)NC(=O)CNC1=O)C(=O)N[C@@H](C)C(=O)NCC(=O)N1CCC[C@H]1C(=O)N[C@@H](CC(C)C)C(=O)N[C@@H](CCCNC(=N)N)C(=O)N[C@@H](C)C(=O)N[C@@H]([C@@H](C)O)C(=O)N3)C(=O)N[C@@H](Cc1c[nH]cn1)C(=O)N[C@@H](C)C(=O)N[C@@H](Cc1c[nH]cn1)C(=O)N2` [E8R] (H-GFGCPFNRNECHAHCLSIGRKFGFCAGPLRATCTCGKQ-OH; disulfide 4-25, 11-33, 15-35), binding at SARS−CoV−2 Spike RBD (KD, SD) was put at a Kd of 720 ± 220 nM.

Source of the values: paper PMC8304516, “A Fungal Defensin Targets the SARS−CoV−2 Spike Receptor−Binding Domain” (Journal of Fungi, 2021).
